Assay results as given in patent US12508280B2, “Formulations for improving gut health” (DSM IP ASSETS B.V., priority 2018, dated 2025).

How the values were obtained:
[1] = test system: caecal contents; assay: In vitro gas production with caecal contents; format: cell-based, pigs
Protocol: After 30 days of adaptation, animals were slaughtered. […] Regarding the caecal contents, one part was immediately sampled, dispensed in 20 ml tubes, frozen in liquid nitrogen and stored at −80° C. to use as frozen inoculum for in vitro gas production studies. The other part was directly used as fresh fermentation inoculum.
The microbial fermentation pattern of caecal contents was studied in vitro by the gas production technique (Theodorou et al., 1994. Anim Feed Sci Technol 48:185-1-97). […] Firstly, triplicate glass bottles (110 mL total volume) for each treatment were filled with 56 mL incubation solution. Caecal contents of each of the 3 pigs for each treatment were mixed 2:1 with the incubation solution under CO2 atmosphere and homogenized for few minutes with waring blender (ceacal contents implies a 0.20 of total incubation solution). Then, 24 mL of the mixture were added to each bottle to complete the 80 mL total liquid volume. In addition, triplicate bottles without substrate were also included as blanks. Bottles were sealed under a CO2 stream and incubated at 39° C. for 12 h. Pressure was recorded every two hours throughout the incubation period, by means of an HD 2124.02 manometer fitted with a TP804 pressure gauge (Delta Ohm, Caselle di Selvazzano, Italy). Readings were converted into volume by a pre-established linear regression equation between the pressure recorded in the same bottles under the same conditions and known air volumes (n=103; R2=0.996). The gas volume recorded for each incubation time was expressed per unit of incubated organic matter (OM). Methane (CH4) concentration was measured on every 6 h interval. At 6 and 12 h incubation samples were collected and either acidified 1:1 with 0.1N HCl or added to 0.5 ml of a deproteinizing mixture of 0.5 M PO4H3 with 2 mg/ml 4-methyl valeric acid, that were stored at −20° C. for determination of ammonia and volatile fatty acid (VFA) concentration, respectively. Note that the procedure of the in vitro gas production was the same for both fresh inocula and frozen inocula, with the only difference that the frozen samples of caecal contents were previously maintained at 38° C. for 5 min for thawing.
For gas production, results were analyzed for each incubation time as a split-plot design, considering the donor pig as a block, the contents (fresh vs. frozen) as the main plot and the treatment as the subplot. […] Differences were considered significant when P<0.05, and a trend for significance was considered when 0.05 ? P<0.10 and, when significant, differences were compared by the Tukey t test at P<0.05.

[2] = test system: cecal microbiota; assay: Broiler feeding trial, cecal microbiota 16S rRNA sequencing; format: in vivo, chickens
Source text: Each group was sampled three times (i.e., S1=14 days, S2=28 days, S3=38/42 days) in specific days corresponding to when the feed will be changed along the feeding program.
During each sampling (i.e., S1, S2 and S3) a total of 40 birds/group were humanely euthanized and 9 litter samples will be collected (i.e., 3 samples/group).
DNA extraction from cecal samples: The commercial kit DNeasy PowerSoil kit (Qiagen, Hilden, Germany) has been chosen and applied to all available cecal samples following the manufacturer instructions. DNA yield was measured using a Nanodrop instrument.
16S rRNA gene PCR amplification and sequencing. The V3-V4 hypervariable region of the 16S rRNA gene was PCR-amplified using 341F and 785R primers with Illumina overhang adaptors sequences. Amplicons purification was performed by using AMPure XP Beads magnetic beads (Beckman Coulter, Brea, CA). For the indexed library preparation, the Nextera XT DNA Library Prep Kit (Illumina, San Diego, CA) was used. A further magnetic beads purification step was performed and libraries quantified using the Qubit 3.0 fluorimeter (Invitrogen), then pooled at 4 nM. The library pool was denatured with NaOH 0.2 N and diluted to […]. Sequencing was performed on Illumina MiSeq platform using a 2×250 bp paired end protocol, according to the manufacturer's instructions (Illumina).
Bioinformatics and statistics. Raw sequences were processed using a pipeline combining PANDAseq (Masella et al, 2012) and QIIME2 (Caporaso et al, 201 O; qiime2.org). After chimera sequences removal, high-quality reads were filtered and binned into high-resolution operational taxonomic units (OTUs) according to the taxonomic threshold of 99% through an open-reference strategy performed with dada2 (Callahan et al, 2016). Taxonomy was assigned using the vsearch classifier (Rognes et al, 2016) and SILVA database as reference (Quast et al, 2013). Alpha diversity was measured using Faith PD index and number of observed OTUs. Statistics was performed using R Studio software version 1.0.136 running on R software 3.1.3 (r-project.org/), implemented with the libraries vegan, made4, PMCMR. Beta diversity was estimated by computing weighted UniFrac distances and visualized by Principal Coordinates Analyses (PCoAs). The significance of separation among groups of samples was tested by permutational multivariate analysis of variance using the function adonis of the vegan package. Bacterial phylogenetic groups (genus, family, phylum) showing a minimum relative abundance of 0.5% in at least the 1% of the samples were kept for further analysis and graphical visualization. Compositional differences among group of samples were tested using Kruskal-Wallis test. P values were corrected for multiple comparisons using the Benjamini-Hochberg method.

[3] = test system: Pepsin, pancreatin, viscozyme; assay: In vitro enzymatic digestion with exogenous enzymes; format: biochemical
Protocol: Erlenmeyer flasks (100 mL total volume) contained 0.5 g of substrate alone or supplemented with the three eubiotics were incubated in duplicates for each treatment, to determine the in vitro enzymatic digestibility following the three-step method of Boisen and Fernandez (1997). The digestibility was determined with: • [1] Pepsin • [2] Pepsin+pancreatin • [3] Pepsin+pancreatin+viscozyme B. With Gastric Contents and Small Intestine Contents
For gas production, results were analyzed for each incubation time as a split-plot design, considering the donor pig as a block, the contents (fresh vs. frozen) as the main plot and the treatment as the subplot. The same design was used to analyze the results obtained from digestive contents (gastric vs. small intestine) as the main plot. In vitro enzymatic results were not statistically analyzed as there were no sources of experimental variability. Differences were considered significant when P<0.05, and a trend for significance was considered when 0.05 ? P<0.10 and, when significant, differences were compared by the Tukey t test at P<0.05.

SMILES: Cc1cc2nc3c(=O)[nH]c(=O)nc-3n(C[C@H](O)[C@H](O)[C@H](O)CO)c2cc1C [Vitamin B2, riboflavin]
- CH4 production as volume per unit of incubation substrate ([1]; 6 and 12 h incubation, ranking, no significant differences): lowest accumulate CH4
- concentration of total VFA, molar proportions of VFA, ammonia concentration ([1]; among treatments): No differences were recorded
- CH4 proportion of total gas ([1]; up to 12 h incubation, numerical, no significant differences (P>0.05)): the lowest
- volume of gas ([1]; vs control, 4, 10 and 12 h incubation, P<0.05): higher
- abundance of family Bacteroidaceae and genus Bacteroides in cecum ([2]; Group B (50 mg/kg riboflavin), all available time points): significantly higher abundances
- cecal microbiota structure (beta diversity, UniFrac PCoA) ([2]; Group B (control diet+50 mg/kg riboflavin) vs groups A and C): different longitudinal trajectory
- abundance of Bifidobacteriaceae in cecum ([2]; Group C (100 mg/kg riboflavin), from T1 to T3, significant at T2 and T3): progressive increase
- cecal species richness (observed OTUs) ([2]; Group C (control diet+100 mg/kg riboflavin), time points T2 and T3, P<0.0001): significant increase in species richness
- [Eubacterium] coprostanoligenes group abundance in cecum ([2]; Groups B and C vs control group A, T2): higher abundance
- substrate digestibility incubated in (P+Pancreatin) and/or (P+P+Viscozyme) [3]: no differences among treatments were observed
- substrate digestibility incubated in pepsin-HCl [3]: higher than that of other treatments
